Measured values from publication PMC3579193, “Elucidation of relaxin-3 binding interactions in the extracellular loops of RXFP3” (Frontiers in Endocrinology, 2013).
Changes are numbered by the printed parent chain. pIC50: −log10 of the molar value.

Experiments:
RXFP4 = conditions: ref Liu et al., 2003a; cited from earlier work
From the text: Relaxin-3 is a member of the relaxin peptide family. Peptides from this family activate relaxin family peptide (RXFP) receptors, which are Type I or Class A G protein-coupled receptors (GPCRs). […] The rela ... || Based on the hypothesis that coevolution of relaxin-3 and RXFP3 occurred in vertebrates and that residues important for relaxin-3 binding and activation should therefore be conserved we performed multiple sequence alignments of all vertebrate RXFP3 sequences. […] Figure 1A highlights sequence alignments of representative mammalian species (human, chimpanzee, rat, mouse, platypus) and representative lower vertebrate species (Frog and Zebrafish) from this analysis compa ... || Based on the hypothesis that coevolution of relaxin-3 and RXFP3 occurred in vertebrates, and in the knowledge that the key relaxin-3 B-chain residues are conserved across all vertebrate species ([Wilkinson et al., 2005b]), we performed multiple sequence alignments of all vertebrate RXFP3 sequences to identify highly conserved residues in the ELs and NT domain that may be involved in relaxin-3 binding. […] We have focused on glutamic (E) and aspartic acid (D) residues ...

HA-RXFP3 = biological target: T1, HA-RXFP3 (Homo sapiens, UniProt Q9NSD7); test: Competition binding with Eu-H3/I5, HA-RXFP3; conditions: HA-RXFP3 vs wild-type RXFP3, competition binding
T1 construct: expressed in transfected cells; host or cells: HEK-293T
T1 sequence (Q9NSD7 2-469 limits assumed): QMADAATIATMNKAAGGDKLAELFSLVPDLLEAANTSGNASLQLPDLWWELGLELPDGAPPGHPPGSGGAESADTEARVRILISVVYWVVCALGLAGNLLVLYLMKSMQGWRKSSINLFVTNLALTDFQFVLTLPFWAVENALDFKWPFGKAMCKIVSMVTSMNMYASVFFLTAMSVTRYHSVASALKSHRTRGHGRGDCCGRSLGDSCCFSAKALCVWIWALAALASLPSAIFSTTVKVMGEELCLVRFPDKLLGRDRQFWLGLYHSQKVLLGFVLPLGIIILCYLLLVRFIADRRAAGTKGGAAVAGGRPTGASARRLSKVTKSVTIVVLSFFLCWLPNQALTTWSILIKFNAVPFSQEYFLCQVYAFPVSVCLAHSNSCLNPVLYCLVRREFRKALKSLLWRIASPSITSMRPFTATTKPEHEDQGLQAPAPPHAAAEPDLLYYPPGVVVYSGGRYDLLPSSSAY
Experimental: HEK-293T cells were transfected in 96 well optiplates (Perkin Elmer) with plasmids encoding the constructs of interest and Eu-H3/I5 binding assays conducted as described previously ([Luo et al., 2010]; [Haugaard-Kedstrom et al., 2011]). […] Binding data are expressed as mean ± standard error of mean (SEM) of % specific binding of triplicate measurements pooled from at least three independent experiments. Data were analyzed using Graphpad PRISM (Graphpad Inc.) and a non-linear regression one-site binding model was used to plot curves and calculate pIC50 values. All the RXFP3 constructs used in this study contained an N-terminal HA epitope. The HA epitope was detected using a purified mouse monoclonal anti-HA antibody [HA.11(16B12), Covance] and a Alexafluor488-labeled goat anti mouse IgG (Invitrogen) in cell surface expression assays that were performed in 24 well plates as previously described ([Yan et al., 2008]). […] Specific binding data for RXFP3 mutants was expressed as mean ± SEM of % specific binding/%HA-RXFP3 cell surface expression of triplicate measurements pooled from at least three independent experiments. Pooled data were analyzed using one-way ANOVA coupled to Newman–Keuls multiple comparison test for multiple group comparison.

HA-RXFP3 E55A/D58A = biological target: T2, HA-RXFP3 E55A/D58A (Homo sapiens, UniProt Q9NSD7, D58A/E55A); test: Competition binding with Eu-H3/I5, HA-RXFP3 E55A/D58A
T2 construct: expressed in transfected cells; host or cells: HEK-293T
T2 sequence (Q9NSD7 2-469 E55A/D58A limits assumed): T1 sequence (Q9NSD7 2-469 limits assumed) with E54A, D57A
Experimental: (§1) PCR reactions and cloning were undertaken as previously described ([Scott et al., 2006], [2012]).
(§2) The same protocol was used to prepare DNA templates of all Glu/Asp to Ala mutants, entailing a single codon change except for D47A/E51A, E55A/D58A, and E141A/D145A which required a double codon change both to Ala. The forward and reverse primers for all mutants are listed in Table 1 and mutagenesis reactions on pcDNA3.1zeo (+)-HA-RXFP3 were performed as previously described ([Scott et al., 2006]; [Yan et al., 2008]). […]
(§3) HEK-293T cells were transfected in 96 well optiplates (Perkin Elmer) with plasmids encoding the constructs of interest and Eu-H3/I5 binding assays conducted as described previously ([Luo et al., 2010]; [Haugaard-Kedstrom et al., 2011]). […] Binding data are expressed as mean ± standard error of mean (SEM) of % specific binding of triplicate measurements pooled from at least three independent experiments. Data were analyzed using Graphpad PRISM (Graphpad Inc.) and a non-linear regression one-site binding model was used to plot curves and calculate pIC50 values. […] The HA epitope was detected using a purified mouse monoclonal anti-HA antibody [HA.11(16B12), Covance] and a Alexafluor488-labeled goat anti mouse IgG (Invitrogen) in cell surface expression assays that were performed in 24 well plates as previously described ([Yan et al., 2008]). […]

HA-RXFP3 D75A = biological target: T3, HA-RXFP3 D75A (Homo sapiens, UniProt Q9NSD7, D75A); test: Competition binding with Eu-H3/I5, HA-RXFP3 D75A
T3 construct: expressed in transfected cells; host or cells: HEK-293T
T3 sequence (Q9NSD7 2-469 D75A limits assumed): T1 sequence (Q9NSD7 2-469 limits assumed) with D74A
Experimental: as §1, §2, §3

Structure (SMILES): CC[C@H](C)[C@@H]1NC(=O)[C@H](Cc2ccccc2)NC(=O)[C@H](CCC(=O)O)NC(=O)[C@H](CCCNC(=N)N)NC(=O)CNC(=O)[C@@H](NC(=O)[C@H](CC(C)C)NC(=O)[C@H](CCCNC(=N)N)NC(=O)[C@@H](NC(=O)CNC(=O)[C@H](Cc2ccc(O)cc2)NC(=O)[C@@H]2CCCN2C(=O)[C@H](C)NC(=O)[C@H](C)NC(=O)[C@@H](N)CCCNC(=N)N)C(C)C)CSSC[C@@H]2NC(=O)[C@@H](NC(=O)[C@H](CO)NC(=O)[C@H](CO)NC(=O)[C@H](CO)NC(=O)[C@H](CC(C)C)NC(=O)CNC(=O)[C@H](C)NC(=O)[C@H](CC(C)C)NC(=O)[C@@H](NC(=O)[C@@H](N)CC(=O)O)C(C)C)CSSC[C@H](NC(=O)CNC(=O)[C@H](Cc3c[nH]c4ccccc34)NC(=O)[C@H](CCCCN)NC2=O)C(=O)N[C@@H](CO)C(=O)N[C@@H](CCCCN)C(=O)N[C@@H](CO)C(=O)N[C@@H](CCC(=O)O)C(=O)N[C@@H]([C@@H](C)CC)C(=O)N[C@@H](CO)C(=O)N[C@@H](CO)C(=O)N[C@@H](CC(C)C)C(=O)N[C@H](C(=O)O)CSSC[C@@H](C(=O)NCC(=O)NCC(=O)N[C@@H](CO)C(=O)N[C@@H](CCCNC(=N)N)C(=O)N[C@@H](Cc2c[nH]c3ccccc23)C(=O)O)NC(=O)[C@H]([C@@H](C)O)NC(=O)[C@H](Cc2ccccc2)NC(=O)[C@H]([C@@H](C)CC)NC(=O)[C@H](C(C)C)NC(=O)[C@H](C)NC(=O)[C@H](CCCNC(=N)N)NC1=O [H3 relaxin]
- binding to and activation of RXFP4 (RXFP4): binds to and activates human RXFP4
- binding affinity compared with wild-type RXFP3 (HA-RXFP3): no difference in the binding affinity
- pIC50 (HA-RXFP3 E55A/D58A): 8.03
- affinity compared with HA-RXFP3 (HA-RXFP3 E55A/D58A; competition binding, p > 0.05): not significantly different from HA-RXFP3
- pIC50 (HA-RXFP3 D75A): 7.70
- affinity compared with HA-RXFP3 (HA-RXFP3 D75A; competition binding): no significant difference in the affinity
